We go through nine molecules from patent US8541002B2, “Vaccine for treatment and prevention of herpes simplex virus infection” (Agenus Inc., priority 2003, dated 2013).

Each structure is given as a SMILES string.

The series in a line: Turbidity assay for solubility of the peptides. The format is physicochemical. The note with it: solubility of the antigenic peptides in water or Dimethyl Sulfoxide (DMSO). The method, then:
A number of antigenic peptides of the invention were synthesized by chemical synthesis as described in Section 5.1.1.
A turbidity assay was used to assess the solubility of the peptides. Turbidity assays used either a Varian Cary double-beam spectrophotometer, or a Molecular Devices Spectromax absorbance plate reader (for high throughput experiments). The spectrophotometer assay read every 2 nm between 340 nm and 360 nm, and averaged the values. Samples were analyzed in duplicate using a quartz micro-cuvette that holds about 200 uL. The plate reader assay used a 96-well plate format that read every 4 nm between 340 nm and 360 nm and averaged those values. Samples in this assay were run in triplicate.

On to `CC(C)C[C@H](NC(=O)[C@H](C)NC(=O)[C@H](CCCNC(=N)N)NC(=O)[C@@H](NC(=O)[C@@H](NC(=O)[C@H](Cc1c[nH]cn1)NC(=O)CNC(=O)CNC(=O)[C@H](CC(C)C)NC(=O)[C@H](CO)NC(=O)[C@H](CC(C)C)NC(=O)[C@H](CO)NC(=O)[C@H](CCCNC(=N)N)NC(=O)[C@@H]1CCCN1C(=O)[C@H](C)NC(=O)[C@@H](NC(=O)[C@H](CCCNC(=N)N)NC(=O)[C@@H]1CCCN1C(=O)[C@H](CC(N)=O)NC(=O)CN)[C@@H](C)O)[C@@H](C)O)C(C)C)C(=O)N[C@@H](CO)C(=O)N1CCC[C@H]1C(=O)N[C@H](C(=O)N1CCC[C@H]1C(=O)N1CCC[C@H]1C(=O)N[C@@H](Cc1c[nH]c2ccccc12)C(=O)N1CCC[C@H]1C(=O)NCC(=O)N[C@H](C(=O)N[C@@H](CC(=O)O)C(=O)N[C@@H](CC(=O)O)C(=O)N[C@@H](CCC(=O)O)C(=O)N[C@@H](CC(=O)O)C(=O)N[C@@H](CC(=O)O)C(=O)N[C@@H](CC(=O)O)C(=O)O)[C@@H](C)O)[C@@H](C)O` [RL02-1], for which the Solubility entry is “water”. Under `CC[C@H](C)[C@H](NC(=O)[C@@H]1CCCN1C(=O)[C@H](CC(C)C)NC(=O)[C@H](Cc1ccc(O)cc1)NC(=O)[C@@H](N)CCCNC(=N)N)C(=O)N[C@@H](C)C(=O)NCC(=O)N[C@H](C(=O)N[C@@H](CO)C(=O)N[C@@H](CO)C(=O)N[C@H](C(=O)N[C@H](C(=O)N[C@@H](C)C(=O)N[C@@H](CC(C)C)C(=O)N[C@@H](C)C(=O)N1CCC[C@H]1C(=O)N[C@@H](Cc1ccc(O)cc1)C(=O)N[C@H](C(=O)N[C@@H](CC(N)=O)C(=O)N[C@@H](CCCCN)C(=O)N[C@H](C(=O)N[C@H](C(=O)N[C@H](C(=O)NCC(=O)N[C@@H](CC(=O)O)C(=O)N[C@@H](CS)C(=O)N[C@@H](CC(C)C)C(=O)N1CCC[C@H]1C(=O)N[C@H](C(=O)N[C@@H](CC(C)C)C(=O)N[C@@H](CC(=O)O)C(=O)N[C@@H](CCSC)C(=O)N[C@@H](CCC(=O)O)C(=O)N[C@H](C(=O)NCC(=O)O)[C@@H](C)O)C(C)C)[C@@H](C)O)C(C)C)[C@@H](C)O)C(C)C)C(C)C)C(C)C)C(C)C` [RL02-2] stands “DMSO”; under `CSCC[C@H](NC(=O)[C@H](C)N)C(=O)N[C@@H](CO)C(=O)N[C@@H](CCCNC(=N)N)C(=O)N[C@@H](CCCNC(=N)N)C(=O)N[C@@H](Cc1ccc(O)cc1)C(=O)N[C@@H](CC(=O)O)C(=O)N[C@@H](CCCNC(=N)N)C(=O)N[C@@H](C)C(=O)N[C@@H](CCC(N)=O)C(=O)N[C@@H](CCCCN)C(=O)NCC(=O)N[C@@H](Cc1ccccc1)C(=O)N[C@@H](CC(C)C)C(=O)N[C@@H](CC(C)C)C(=O)N[C@H](C(=O)N[C@@H](CO)C(=O)N[C@@H](CC(C)C)C(=O)N[C@@H](CCCNC(=N)N)C(=O)N[C@@H](CCCNC(=N)N)C(=O)N[C@@H](C)C(=O)N[C@@H](Cc1ccc(O)cc1)C(=O)N[C@@H](C)C(=O)N1CCC[C@H]1C(=O)N[C@@H](CC(C)C)C(=O)N[C@@H](CC(C)C)C(=O)N[C@@H](C)C(=O)N[C@@H](CCCNC(=N)N)C(=O)N[C@@H](CCC(=O)O)C(=O)N[C@@H](CC(N)=O)C(=O)N[C@@H](C)C(=O)N[C@@H](C)C(=O)N[C@@H](CC(C)C)C(=O)N[C@H](C(=O)NCC(=O)O)[C@@H](C)O)[C@@H](C)O` [RS01-2], “water”; under `CSCC[C@H](NC(=O)[C@H](Cc1ccccc1)NC(=O)[C@H](C)NC(=O)CNC(=O)[C@@H](NC(=O)[C@H](Cc1ccccc1)NC(=O)[C@H](CCCNC(=N)N)NC(=O)[C@@H]1CCCN1C(=O)[C@H](CC(=O)O)NC(=O)[C@H](CCC(N)=O)NC(=O)[C@@H](NC(=O)[C@H](CO)NC(=O)[C@@H](NC(=O)CNC(=O)[C@@H](N)CCC(=O)O)C(C)C)[C@@H](C)O)C(C)C)C(=O)N[C@@H](C)C(=O)N[C@@H](C)C(=O)N[C@@H](CCCCN)C(=O)N[C@@H](C)C(=O)N[C@@H](C)C(=O)N[C@@H](Cc1c[nH]cn1)C(=O)N[C@@H](CC(C)C)C(=O)N[C@@H](CCC(=O)O)C(=O)N[C@@H](CC(C)C)C(=O)N[C@@H](CCC(=O)O)C(=O)N[C@@H](C)C(=O)N[C@@H](CCCNC(=N)N)C(=O)N[C@@H](CC(C)C)C(=O)N[C@@H](CCCCN)C(=O)N[C@@H](CO)C(=O)N[C@@H](CCCNC(=N)N)C(=O)N[C@@H](C)C(=O)N[C@@H](CCCNC(=N)N)C(=O)N[C@@H](CC(C)C)C(=O)N[C@@H](CCC(=O)O)C(=O)O` [UL14-1], “water”. As for `CC[C@H](C)[C@H](NC(=O)[C@H](CCCCN)NC(=O)[C@@H](N)C(C)C)C(=O)N[C@@H](CCCNC(=N)N)C(=O)N[C@H](C(=O)N[C@@H](CCC(=O)O)C(=O)N[C@@H](CCC(=O)O)C(=O)N[C@@H](CCC(N)=O)C(=O)N[C@@H](C)C(=O)N[C@@H](C)C(=O)N[C@@H](CCCNC(=N)N)C(=O)N[C@@H](CCCNC(=N)N)C(=O)N[C@@H](CC(=O)O)C(=O)N[C@@H](Cc1ccccc1)C(=O)N[C@@H](CC(C)C)C(=O)N[C@H](C(=O)N[C@@H](C)C(=O)N[C@@H](Cc1c[nH]cn1)C(=O)N[C@@H](CCCNC(=N)N)C(=O)N[C@@H](CCCNC(=N)N)C(=O)N[C@@H](Cc1ccc(O)cc1)C(=O)N[C@@H](CC(C)C)C(=O)N[C@@H](CC(=O)O)C(=O)N1CCC[C@H]1C(=O)N[C@@H](C)C(=O)N[C@@H](CC(C)C)C(=O)N[C@@H](CO)C(=O)N[C@@H](CCC(=O)O)C(=O)N[C@@H](CCCNC(=N)N)C(=O)N[C@@H](CC(C)C)C(=O)N[C@@H](CC(=O)O)C(=O)N[C@@H](C)C(=O)N[C@@H](C)C(=O)N[C@@H](CC(=O)O)C(=O)N[C@@H](CC(=O)O)C(=O)O)[C@@H](C)O)C(C)C` [UL14-2], the Solubility entry is reported as “water”. Under `CSCC[C@H](NC(=O)[C@H](CC(C)C)NC(=O)[C@H](CC(N)=O)NC(=O)[C@H](CCC(=O)O)NC(=O)[C@H](CC(C)C)NC(=O)[C@H](CC(C)C)NC(=O)[C@@H](NC(=O)[C@@H]1CCCN1C(=O)[C@H](Cc1ccccc1)NC(=O)[C@H](CCCNC(=N)N)NC(=O)[C@H](CCCNC(=N)N)NC(=O)[C@@H](NC(=O)[C@@H](NC(=O)[C@H](CCC(=O)O)NC(=O)CNC(=O)[C@@H](N)CC(C)C)C(C)C)[C@@H](C)O)C(C)C)C(=O)N[C@@H](CCCNC(=N)N)C(=O)N[C@@H](C)C(=O)N[C@@H](CC(C)C)C(=O)N[C@@H](CCC(=O)O)C(=O)NCC(=O)N[C@H](C(=O)N[C@@H](C)C(=O)N1CCC[C@H]1C(=O)N[C@@H](CC(=O)O)C(=O)N[C@@H](C)C(=O)N[C@@H](Cc1ccccc1)C(=O)N[C@@H](Cc1ccccc1)C(=O)N[C@@H](Cc1c[nH]cn1)C(=O)N[C@H](C(=O)N[C@@H](C)C(=O)N[C@@H](Cc1ccc(O)cc1)C(=O)N[C@@H](C)C(=O)N[C@@H](CC(C)C)C(=O)N[C@@H](C)C(=O)O)[C@@H](C)O)[C@@H](C)O` [UL17-2] stands “water”; under `CC[C@H](C)[C@H](NC(=O)[C@@H](NC(=O)[C@H](CC(=O)O)NC(=O)[C@H](CCCNC(=N)N)NC(=O)[C@H](C)N)C(C)C)C(=O)N[C@@H](CCCNC(=N)N)C(=O)N[C@@H](CCC(=O)O)C(=O)N[C@H](C(=O)N[C@@H](CC(=O)O)C(=O)N[C@@H](C)C(=O)N[C@@H](Cc1ccccc1)C(=O)N[C@@H](Cc1ccc(O)cc1)C(=O)NCC(=O)N[C@@H](CC(=O)O)C(=O)N[C@@H](CC(C)C)C(=O)N[C@@H](C)C(=O)N[C@@H](CC(=O)O)C(=O)N[C@@H](CC(C)C)C(=O)N[C@@H](CC(=O)O)C(=O)N[C@@H](CC(C)C)C(=O)N[C@@H](CCC(N)=O)C(=O)N[C@@H](CC(C)C)C(=O)N[C@@H](CCCNC(=N)N)C(=O)N[C@@H](C)C(=O)N[C@@H](C)C(=O)N1CCC[C@H]1C(=O)N1CCC[C@H]1C(=O)N[C@@H](C)C(=O)N[C@@H](CC(N)=O)C(=O)N[C@@H](CC(C)C)C(=O)N[C@@H](Cc1ccc(O)cc1)C(=O)N[C@@H](C)C(=O)N[C@@H](CCCNC(=N)N)C(=O)N[C@@H](CC(C)C)C(=O)NCC(=O)O)[C@@H](C)O` [UL36-4], “DMSO”; under `CSCC[C@H](NC(=O)[C@H](CCCNC(=N)N)NC(=O)[C@H](Cc1c[nH]cn1)NC(=O)[C@@H](NC(=O)[C@H](CC(C)C)NC(=O)[C@H](CC(C)C)NC(=O)CNC(=O)[C@@H]1CCCN1C(=O)[C@H](CC(C)C)NC(=O)[C@H](CC(N)=O)NC(=O)[C@H](CCC(=O)O)NC(=O)[C@H](C)NC(=O)[C@H](CC(C)C)NC(=O)[C@H](CC(C)C)NC(=O)[C@H](C)NC(=O)[C@@H](NC(=O)[C@H](CCC(=O)O)NC(=O)[C@@H]1CCCN1C(=O)[C@@H](N)CC(C)C)[C@@H](C)O)C(C)C)C(=O)N[C@@H](C)C(=O)N[C@H](C(=O)N[C@@H](C)C(=O)N[C@@H](CC(C)C)C(=O)N1CCC[C@H]1C(=O)N[C@@H](CCC(=O)O)C(=O)N[C@H](C(=O)N1CCC[C@H]1C(=O)N[C@@H](CCC(=O)O)C(=O)N[C@@H](C)C(=O)N[C@@H](C)C(=O)N[C@@H](Cc1ccccc1)C(=O)N[C@@H](CCCNC(=N)N)C(=O)N[C@@H](CCC(=O)O)C(=O)N[C@@H](CCSC)C(=O)N[C@@H](CC(=O)O)C(=O)O)[C@@H](C)O)C(C)C` [UL37-1], “DMSO”. As for `CC[C@H](C)[C@H](NC(=O)[C@H](Cc1ccc(O)cc1)NC(=O)[C@H](C)NC(=O)[C@H](Cc1ccc(O)cc1)NC(=O)CNC(=O)[C@H](CC(C)C)NC(=O)[C@H](C)NC(=O)[C@H](CCCNC(=N)N)NC(=O)[C@H](CC(C)C)NC(=O)[C@@H](NC(=O)[C@H](CCCNC(=N)N)NC(=O)[C@@H](NC(=O)[C@H](CS)NC(=O)[C@H](Cc1ccccc1)NC(=O)[C@H](CC(C)C)NC(=O)[C@H](Cc1c[nH]cn1)NC(=O)[C@H](C)NC(=O)[C@H](CC(C)C)NC(=O)[C@H](CCCNC(=N)N)NC(=O)[C@H](CC(C)C)NC(=O)[C@H](C)NC(=O)[C@@H]1CCCN1C(=O)[C@H](CCCCN)NC(=O)[C@H](CO)NC(=O)[C@@H]1CCCN1C(=O)[C@H](C)NC(=O)CNC(=O)[C@H](CO)NC(=O)[C@@H]1CCCN1C(=O)[C@H](C)NC(=O)[C@H](C)N)[C@@H](C)CC)C(C)C)C(=O)N[C@@H](CC(N)=O)C(=O)N[C@@H](CO)C(=O)NCC(=O)N[C@@H](CCC(N)=O)C(=O)O` [UL41-1], the Solubility entry is given as “water”.
